These results are taken from patent US20050163850A1, “Administration of levodopa and carbidopa” (priority 2003, published 2005).

The conditions of data set [1]: cited from earlier work.
For data set [2] the following is noted: duodenal, 2 mg levodopa lauryl sulfate/rat (0.85 mg levodopa equivalent/rat), individual rats.
For data set [3] the following is noted: cited from earlier work. This is another data set of the same source.
The conditions of data set [4]: after oral administration; cited from earlier work.
The nature of another data set: in vivo. Conditions: rat, plasma, iv, 0.4 mg/kg, Plasma level (levodopa), 0.4 mg levodopa/kg, individual rats 1-3 (Table D).
For data set [5] the following is noted: iv, 0.4 mg levodopa/kg, individual rats 1-3 (Table D).
For data set [6] the following is noted: with carbidopa; cited from earlier work.
A short description of data set [7]: Intravenous levodopa group of Example 10, levodopa plasma level. Conditions: 0.4 mg levodopa/kg, individual rats 1-3 (Table C). Format: in vivo. How it is done:
Another group of rats were treated with levodopa intravenously, at a dose of 0.4 mg/kg.

Several values for one entry are separate records, joined by “and”; a condition that tells them apart may be missing. Equal values may be shown once. Read-outs that look alike come from different tables or passages of the source.

As to `C[C@@](Cc1ccc(O)c(O)c1)(NN)C(=O)O` [Carbidopa, (−)-L-((alpha)-hydrazino-((alpha)-methyl-(beta)-(3,4-dihydroxybenzene)propanoic acid monohydrate], the solubility in water result in data set [1] is “slightly soluble in water”.
Regarding `CCCCCCCCCCCCOS(=O)(=O)O.N[C@@H](Cc1ccc(O)c(O)c1)C(=O)O` [Levodopa lauryl sulfate, Levodopa-Lauryl Sulfate Complex], the “Plasma level (levodopa)” value in data set [2] (time 0 h) is 9.42 ng/mL and 8.7 ng/mL and 8.55 ng/mL; in data set [2] (time 1 h), 57.3 ng/mL and 51.3 ng/mL and 43.7 ng/mL; in data set [2] (time 2 h), 21.3 ng/mL and 22 ng/mL and 9.24 ng/mL; in data set [2] (time 3 h) it was 12 ng/mL and 11.6 ng/mL and 24 ng/mL; in data set [2] (time 4 h), 8.07 ng/mL and 7.45 ng/mL and 19.6 ng/mL.
With `N[C@@H](Cc1ccc(O)c(O)c1)C(=O)O` [Levodopa, (−)-L-(alpha)-amino-(beta)-(3,4-dihydroxybenzene) propanoic acid], the “average intraindividual coefficient of variation for the plasma levodopa concentrations” value in data set [3] (after oral therapy (sustained-release tablets)) was 34%; in data set [3] (during continuous intestinal infusion, p<0.01), 14%. Also, in data set [4], the “time within which practically all absorption of levodopa occurs” value was no more than 4 h. The concentration at 0 h in the data set “in vivo” came to 0 ng/mL; in data set [7] (Sprague-Dawley, rat, plasma, 0.4 mg/kg, time 0 h), 0 ng/mL. Besides, the “Plasma level (levodopa)” value in data set [5] (time 0 h) is 0 ng/mL; in data set [5] (time 0.033 h) it was 336 ng/mL and 247 ng/mL and 690 ng/mL; in data set [5] (time 0.5 h) it was 16 ng/mL and 11.4 ng/mL and 41.6 ng/mL; in data set [5] (time 1 h), 7.34 ng/mL and 11.5 ng/mL and 18.2 ng/mL; in data set [5] (time 1.5 h) it was 6.51 ng/mL and 0 ng/mL and 13.8 ng/mL; in data set [5] (time 2 h), 0 ng/mL and 5.82 ng/mL and 8.23 ng/mL. The “Plasma level (levodopa)” value in data set [5] (time 3 h) is 0 ng/ml (2×) and 5.53 ng/ml; in data set [7] (time 0 h), 0 ng/mL; in data set [7] (time 0.033 h) it was 336 ng/mL and 247 ng/mL and 690 ng/mL; in data set [7] (time 0.5 h) it was 16 ng/mL and 11.4 ng/mL and 41.6 ng/mL; in data set [7] (time 1 h), 7.34 ng/mL and 11.5 ng/mL and 18.2 ng/mL; in data set [7] (time 1.5 h), 6.51 ng/mL and 0 ng/mL and 13.8 ng/mL. Moreover, the “Plasma level (levodopa)” value in data set [7] (time 2 h) was 0 ng/mL and 5.82 ng/mL and 8.23 ng/mL; in data set [7] (time 3 h), 0 ng/ml (2×) and 5.53 ng/ml. Also, the “plasma half-life of levodopa” value in data set [6] was 1.5 h. Moreover, the solubility in water result in data set [1] was “slightly soluble in water”.
